Source: US9586951B2 (FUJIFILM Corporation, priority 2013, dated 2017)

Legend:
[1] = target: T1, ATM (Homo sapiens, UniProt Q13315); assay: ATM inhibition test (phosphorylation of Chk2 generated by ionizing radiation, AlphaScreen SureFire); format: cell-based; settings: phosphorylated Chk2 in NCI-H460 cells, ionizing radiation 8Gy, 1 hour after test compound treatment; read-out: ATM inhibitory activity
T1 construct: detecting phosphorylation of Chk2 in a human non-small cell lung cancer cell line NCI-H460 (ATCC company); host or cells: NCI-H460 human non-small cell lung cancer cells
Method in brief: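 NCI-H460 cells, compound 1 h pre-treatment, 8Gy IR, further 1 h at 37° C in 5% CO2. Read-out: phospho-Chk2 via AlphaScreen SureFire. % inhibition relative to IR-induced signal window (irradiated vs non-irradiated drug-free wells).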

[2] = system: human non-small cell lung cancer cell line NCI-H460; assay: Cell proliferation inhibition test by sensitivity-enhancing to ionizing radiation (Cell Titer Glo); format: cell-based; settings: Homo sapiens, NCI-H460, 120 h, concentration in which SER became 2; NCI-H460 cells, ionizing radiation 2 Gy, cultured 120 hour
Method in brief: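 Radiosensitisation measured as SER, a ratio of Cell Titer Glo luminescence in irradiated vs unirradiated plates relative to DMSO; SER2, the concentration yielding SER 2, came from sigmoidal regression. Compound (0.1% DMSO) was given 24 h post-seeding, 2 Gy applied 30 min later, then 120 hour culture at 37° C.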

T1 sequence (Q13315 whole entry): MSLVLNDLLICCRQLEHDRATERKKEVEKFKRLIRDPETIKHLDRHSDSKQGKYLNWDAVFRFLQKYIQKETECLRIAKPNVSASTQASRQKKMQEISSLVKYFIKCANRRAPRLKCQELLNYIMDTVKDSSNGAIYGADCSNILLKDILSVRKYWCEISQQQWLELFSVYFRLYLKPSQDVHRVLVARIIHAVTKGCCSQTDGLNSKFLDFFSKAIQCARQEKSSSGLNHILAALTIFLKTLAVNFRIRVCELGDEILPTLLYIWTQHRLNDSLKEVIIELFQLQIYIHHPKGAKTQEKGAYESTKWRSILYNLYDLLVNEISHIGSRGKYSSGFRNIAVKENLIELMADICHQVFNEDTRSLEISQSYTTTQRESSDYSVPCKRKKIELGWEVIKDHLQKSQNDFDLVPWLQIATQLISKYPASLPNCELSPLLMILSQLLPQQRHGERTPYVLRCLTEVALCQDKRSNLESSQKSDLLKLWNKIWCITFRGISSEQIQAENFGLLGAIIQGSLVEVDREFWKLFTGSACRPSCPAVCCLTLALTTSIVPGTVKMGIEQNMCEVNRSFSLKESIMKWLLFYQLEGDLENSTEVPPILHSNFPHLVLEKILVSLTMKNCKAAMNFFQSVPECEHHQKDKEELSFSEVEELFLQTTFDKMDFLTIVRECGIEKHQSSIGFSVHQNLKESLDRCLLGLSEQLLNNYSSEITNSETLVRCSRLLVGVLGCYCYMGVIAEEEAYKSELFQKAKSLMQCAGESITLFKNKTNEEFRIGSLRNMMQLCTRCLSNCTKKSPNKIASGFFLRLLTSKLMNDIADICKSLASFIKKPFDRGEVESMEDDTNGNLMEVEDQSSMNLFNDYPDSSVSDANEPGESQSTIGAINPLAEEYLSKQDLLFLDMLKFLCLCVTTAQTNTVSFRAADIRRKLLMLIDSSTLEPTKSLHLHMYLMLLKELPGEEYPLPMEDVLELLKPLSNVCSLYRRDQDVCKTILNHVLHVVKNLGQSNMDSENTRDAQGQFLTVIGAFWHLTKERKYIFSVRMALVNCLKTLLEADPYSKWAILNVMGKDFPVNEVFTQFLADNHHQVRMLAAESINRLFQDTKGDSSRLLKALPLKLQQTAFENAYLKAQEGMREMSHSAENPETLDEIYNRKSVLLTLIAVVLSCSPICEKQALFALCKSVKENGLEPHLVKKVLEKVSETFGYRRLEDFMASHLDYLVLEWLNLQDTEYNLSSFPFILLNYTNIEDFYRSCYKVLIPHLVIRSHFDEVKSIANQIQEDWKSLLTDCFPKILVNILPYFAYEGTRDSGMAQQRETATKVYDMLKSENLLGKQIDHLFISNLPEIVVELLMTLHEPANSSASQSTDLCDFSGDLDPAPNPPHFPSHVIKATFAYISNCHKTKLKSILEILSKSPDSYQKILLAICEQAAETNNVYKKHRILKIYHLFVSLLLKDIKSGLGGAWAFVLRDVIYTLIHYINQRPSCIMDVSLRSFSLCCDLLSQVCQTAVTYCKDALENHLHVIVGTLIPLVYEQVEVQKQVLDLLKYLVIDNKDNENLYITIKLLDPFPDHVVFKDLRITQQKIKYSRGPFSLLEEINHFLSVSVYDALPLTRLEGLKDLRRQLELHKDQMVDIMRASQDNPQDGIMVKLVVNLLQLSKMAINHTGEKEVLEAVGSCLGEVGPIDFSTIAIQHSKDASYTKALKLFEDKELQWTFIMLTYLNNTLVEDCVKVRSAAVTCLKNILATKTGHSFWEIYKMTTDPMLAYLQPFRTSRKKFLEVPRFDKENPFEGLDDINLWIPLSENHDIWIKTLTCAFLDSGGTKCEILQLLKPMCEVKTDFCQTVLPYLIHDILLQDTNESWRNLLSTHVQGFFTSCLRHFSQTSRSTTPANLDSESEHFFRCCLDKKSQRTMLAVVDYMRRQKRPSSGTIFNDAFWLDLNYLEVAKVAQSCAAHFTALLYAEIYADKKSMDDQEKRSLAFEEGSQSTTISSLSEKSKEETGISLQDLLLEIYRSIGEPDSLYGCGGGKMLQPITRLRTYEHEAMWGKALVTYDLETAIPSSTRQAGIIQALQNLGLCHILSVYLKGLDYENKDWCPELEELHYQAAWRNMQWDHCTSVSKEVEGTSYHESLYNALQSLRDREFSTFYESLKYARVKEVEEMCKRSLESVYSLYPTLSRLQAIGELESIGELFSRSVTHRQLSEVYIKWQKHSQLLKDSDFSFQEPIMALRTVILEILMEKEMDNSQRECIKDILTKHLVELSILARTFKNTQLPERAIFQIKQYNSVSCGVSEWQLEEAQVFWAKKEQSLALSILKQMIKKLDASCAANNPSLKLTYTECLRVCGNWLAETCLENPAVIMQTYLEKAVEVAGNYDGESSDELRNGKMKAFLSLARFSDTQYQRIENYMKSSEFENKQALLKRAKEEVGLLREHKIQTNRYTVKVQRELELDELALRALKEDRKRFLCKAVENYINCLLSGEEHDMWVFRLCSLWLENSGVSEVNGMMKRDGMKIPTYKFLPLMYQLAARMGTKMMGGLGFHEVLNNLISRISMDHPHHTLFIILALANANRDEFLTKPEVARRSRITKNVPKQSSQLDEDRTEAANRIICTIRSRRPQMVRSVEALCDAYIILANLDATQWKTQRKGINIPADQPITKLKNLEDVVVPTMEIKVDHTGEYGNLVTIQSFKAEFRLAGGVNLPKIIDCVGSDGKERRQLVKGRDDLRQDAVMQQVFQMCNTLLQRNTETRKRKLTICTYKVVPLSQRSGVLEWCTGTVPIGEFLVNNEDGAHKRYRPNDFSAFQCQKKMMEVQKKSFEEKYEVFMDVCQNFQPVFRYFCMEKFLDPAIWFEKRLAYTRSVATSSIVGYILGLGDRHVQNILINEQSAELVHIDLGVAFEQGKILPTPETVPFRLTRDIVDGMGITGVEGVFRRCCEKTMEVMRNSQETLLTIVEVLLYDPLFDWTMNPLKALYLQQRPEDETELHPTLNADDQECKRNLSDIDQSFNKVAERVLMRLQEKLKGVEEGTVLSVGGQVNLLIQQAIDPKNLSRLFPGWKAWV

| Compound | IC50 [1] [nM] | SER2 (concentration at which the radiation sensitivity-enhancement ratio reaches 2) [2] [nM] |
| --- | --- | --- |
| O=c1cc(N2CCOCC2)cc(-c2cccc3c2Oc2ccc(NCc4cc(C5CC5)ccn4)cc2C3)[nH]1 [Example 2-13-10, 6-(7-(((4-Cyclopropylpyridin-2-yl)methyl)amino)-9H-xanthen-4-yl)-4-morpholino pyridin-2(1H)-one] | < 100 | 100 to 500 |
| COCCOCC(Nc1ccc2c(c1)Sc1cccc(-c3cc(N4CCOCC4)cc(=O)[nH]3)c1S2)c1ccc(C)cn1 (stereo not shown) [Example 1-12-102, 6-(7-((2-(2-Methoxyethoxy)-1-(5-methylpyridin-2-yl)ethyl)amino)thianthren-1-yl)-4-morpholino pyridin-2(1H)-one] | < 100 | 100 to 500 |
| COc1ncccc1CN1CCC(Nc2ccc3c(c2)Cc2cccc(-c4cc(N5CCOCC5)cc(=O)[nH]4)c2O3)CC1 [Example 2-28-5, 6-(7-((1-((2-Methoxypyridin-3-yl)methyl)piperidin-4-yl)amino)-9H-xanthen-4-yl)-4-morpholino pyridin-2(1H)-one] | < 100 | 500 to 2000 |
| CC(Nc1ccc2c(c1)Sc1cccc(-c3cc(N4CCOCC4)cc(=O)[nH]3)c1S2)c1nccc(C(F)F)n1 (stereo not shown) [Example 1-12-87, 6-(7-((1-(4-(Difluoromethyl)pyrimidin-2-yl)ethyl)amino)thianthren-1-yl)-4-morpholino pyridin-2(1H)-one] | < 100 | 100 to 500 |
| O=c1cc(N2CCOCC2)cc(-c2cccc3c2Oc2ccc(NCc4cncc(C(F)(F)F)c4)cc2C3)[nH]1 [Example 2-13-4, 4-Morpholino-6-(7-(((5-(trifluoromethyl)pyridin-3-yl)methyl)amino)-9H-xanthen-4-yl)pyridin-2(1H)-one] | < 100 | 100 to 500 |
| COc1ccc(CNc2ccc3c(c2)Cc2cccc(-c4cc(N5CCOCC5)cc(=O)[nH]4)c2O3)cn1 [Example 2-2-1, 6-(7-(((6-methoxypyridin-3-yl)methyl)amino)-9H-xanthen-4-yl)-4-morpholinopyridin-2(1H)-one] | < 100 | 100 to 500 |
| CCC(Nc1ccc2c(c1)Sc1cccc(-c3cc(N4CCOCC4)cc(=O)[nH]3)c1S2)c1ccc(C)cn1 (stereo not shown) [Example 1-12-118, 6-(7-((1-(5-Methylpyridin-2-yl)propyl)amino)thianthren-1-yl)-4-morpholino pyridin-2(1H)-one] | < 100 | 100 to 500 |
| O=c1cc(N2CCOCC2)cc(-c2cccc3c2Sc2ccc(NCCN4CCOCC4)cc2S3)[nH]1 [Example 1-10-7, 4-Morpholino-6-(7-((2-morpholinoethyl)amino)thianthren-1-yl)pyridin-2 (1H)-one] | < 100 | 100 to 500 |

More lines, main results first:

| IC50 [1] [nM] | Compound | SER2 (concentration at which the radiation sensitivity-enhancement ratio reaches 2) [2] [nM] |
| --- | --- | --- |
| < 100 | Cc1ccc(C(Nc2ccc3c(c2)Sc2cccc(-c4cc(N5CCOCC5)cc(=O)[nH]4)c2S3)[C@H]2CN(CCN(C)C)CCO2)nc1 (single isomer, unassigned) [Example 10-2] | < 100 |
| < 100 | Cc1ccc(C(Nc2ccc3c(c2)Sc2cccc(-c4cc(N5CCOCC5)cc(=O)[nH]4)c2S3)C2CCCN(C)C2)nc1 (stereo not shown) [Example 1-22-10, 6-(7-(((1-Methylpiperidin-3-yl)(5-methylpyridin-2-yl)methyl)amino)thianthren-1-yl)-4-morpholino pyridin-2(1H)-one] | 100 to 500 |
| < 100 | COc1cncc(C(C)Nc2ccc3c(c2)Sc2cccc(-c4cc(N5CCOCC5)cc(=O)[nH]4)c2S3)c1 (stereo not shown) [Example 1-12-9, 6-(7-((1-(5-Methoxypyridin-3-yl)ethyl)amino)thianthren-1-yl)-4-morpholino pyridin-2(1H)-one] | 100 to 500 |
| < 100 | Cc1ccnc(CNc2ccc3c(c2)Sc2cccc(-c4cc(N5CCOCC5)cc(=O)[nH]4)c2O3)c1 [Example 4-8-19, 6-(8-(((4-Methylpyridin-2-yl)methyl)amino)phenoxathiin-4-yl)-4-morpholino pyridin-2(1H)-one] | 100 to 500 |
| < 100 | Cc1cnc(C(C)Nc2ccc3c(c2)Cc2cccc(-c4cc(N5CCOCC5)cc(=O)[nH]4)c2O3)cn1 (stereo not shown) [Example 2-14-24, 6-(7-((1-(5-Methylpyrazin-2-yl)ethyl)amino)-9H-xanthen-4-yl)-4-morpholino pyridin-2(1H)-one] | 100 to 500 |
| < 100 | Cc1ccnc(CNc2ccc3c(c2)Cc2ccc(F)c(-c4cc(N5CCOCC5)cc(=O)[nH]4)c2O3)c1 [Example 2-46-5, 6-(3-Fluoro-7-(((4-methylpyridin-2-yl)methyl)amino)-9H-xanthen-4-yl)-4-morpholinopyridin-2(1H)-one] | 100 to 500 |
| < 100 | O=c1cc(N2CCOCC2)cc(-c2cccc3c2Oc2ccc(NCc4cncc(C5CC5)c4)cc2C3)[nH]1 [Example 2-2-50, 6-(7-(((5-Cyclopropylpyridin-3-yl)methyl)amino)-9H-xanthen-4-yl)-4-morpholino pyridin-2 (1H)-one] | 100 to 500 |
| 100 to 500 | COc1cnc(CNc2ccc3c(c2)Cc2cccc(-c4cc(N5CCOCC5)cc(=O)[nH]4)c2O3)cn1 [Example 2-2-36, 6-(7-(((5-Methoxypyrazin-2-yl)methyl)amino)-9H-xanthen-4-yl)-4-morpholino pyridin-2(1H)-one] | 500 to 2000 |
| < 100 | Cc1ccc(CNc2ccc3c(c2)Sc2cccc(-c4cc(N5CCOCC5)cc(=O)[nH]4)c2O3)nc1 [Example 4-8-13, 6-(8-(((5-Methylpyridin-2-yl)methyl)amino)phenoxathiin-4-yl)-4-morpholino pyridin-2(1H)-one] | 100 to 500 |
| < 100 | Cc1nccc(C(C)Nc2ccc3c(c2)Sc2cccc(-c4cc(N5CCOCC5)cc(=O)[nH]4)c2S3)n1 (single isomer, unassigned) [Example 1-12-141-1, 6-(7-((1-(2-methylpyrimidin-4-yl)ethyl)amino)thianthren-1-yl)-4-morpholinopyridin-2(1H)-one] | 100 to 500 |
| < 100 | O=c1cc(N2CCOCC2)cc(-c2cccc3c2Oc2ccc(NCc4cc(Cl)ccn4)cc2C3)[nH]1 [Example 2-2-64, 6-(7-(((4-Chloropyridin-2-yl)methyl)amino)-9H-xanthen-4-yl)-4-morpholino pyridin-2(1H)-one] | 100 to 500 |
| < 100 | Cc1ccc(C(Nc2ccc3c(c2)Sc2cccc(-c4cc(N5CCOCC5)cc(=O)[nH]4)c2S3)C2CC(N(C)C)C2)nc1 (single isomer, unassigned) [Example 1-50-8, 6-(7-(((3-(Dimethylamino)cyclobutyl)(5-methylpyridin-2-yl)methyl)amino)thianthren-1-yl)-4-morpholino pyridin-2(1H)-one] | < 100 |
